Assay results as given in US20170368134A1, “PROTEASOME INHIBITORS FOR TREATING A DISORDER RELATED TO AN ACCUMULATION OF NON-DEGRADED ABNORMAL PROTEIN OR A CANCER” (UNIVERSITÉ D'AIX-MARSEILLE, priority 2015, published 2017).
Peptide text beside a SMILES is read from it. * marks the point of attachment. Cbz = O=C(OCc1ccccc1)*

Key:
HGPS cell lines = test: Quantitation of abnormal nuclear morphology; format: cell-based, human; conditions: 10 μM MG132, 48 h
Protocol: The percentage of normal nuclei (nuclei with a smooth oval shape) and abnormal nuclei (nuclei with blebs, irregular shape, or multiple folds) was calculated by manual blind counting. A representative image and the mean values of 3 different experiments are shown. *P<0.05.
Fibroblasts from three HGPS patients (AG01972, AG11498, 5968) and two normal individuals (8471, 8498) were cultured with DMEM medium containing 10 μM MG132, or the same volume of vehicle (DMSO, 0.025% v/v) for 48 h. Cells stained for lamin A/C or DAPI were examined by fluorescence microscopy with an Axioplan 2 imaging microscope (Carl Zeiss). For quantitation of abnormal nuclear morphology, the percentage of normal nuclei (nuclei with a smooth oval shape) and abnormal nuclei (nuclei with blebs, irregular shape, or multiple folds) was calculated by manual blind counting. At least 200 fibroblast nuclei were randomly selected for each cell line and examined in two independent experiments. Results are expressed graphically as the average percentage of the total nuclei counted.

progerin = test: Progerin levels in HGPS iPS-derived MSC and VSMC; format: cell-based, human; conditions: data not shown
Protocol: Generation of induced pluripotent stem cells (iPS) by reprogramming was carried out using fibroblasts isolated from HGPS patient biopsies performed in the Assistance Publique Hopitaux de Marseille (13-8243) or provided by Coriell Institute (Camden, USA) (AG01972). Cell lines were reprogrammed to iPSC using Yamanaka's original method based on retrovirus-mediated transfection of four transcription factors, namely Oct3/4, Sox2, c-Myc, and Klf4 (41). The iPSC lines were amplified up to the 15th passage before differentiation.
HGPS iPSC were grown on STO mouse fibroblasts, inactivated with […] mitomycin C, seeded at 30,000/cm2 and grown as previously described (42). For differentiation, iPSC were differentiated into mesenchymal stem cells (MSC-iPSC) using directed protocols for differentiation previously published (43-45). VSMC were obtained from iPSC by fluorescent-activated cell sorting (FACS) separation of CD31+ cells (46).
To determine whether MG132 also influences the level of progerin in other cell lineages, the inventors generated iPSC from HGPS patients' fibroblasts. Mesenchymal Stem Cells (MSC) and Vascular Smooth Muscle Cells (VSMC) derived from HGPS iPSC presented the commonly described abnormalities of HGPS fibroblasts, namely, loss of proliferation capacities, premature senescence and nuclear blebbing (69, 70). […]

## CC(C)C[C@@H](C=O)NC(=O)[C@H](CC(C)C)NC(=O)[C@H](CC(C)C)NC(=O)OCc1ccccc1 [MG132, Z-Leu-Leu-Leu-al] (Cbz-Leu-Leu-Leu-aldehyde)
HGPS cell lines
  nuclear shape abnormalities: improves nuclear shape abnormalities
progerin; HGPS fibroblasts, iPS-MSC and iPS-VSMC
  progerin levels: decreased
progerin; iPS-VSMC, progerin immunostaining
  concentration from which progerin reduction is significant: ≥ 1.25 µM
